Data reported in PubChem BioAssay AID1918942 (Molecular Pharmacology Branch, DTP, NCI, 2023).
Where “and” joins values, the source holds several entries; their conditions need not be identical. Equal values may be shown once.

System: 743489-274-T-PDC complex spheroid viability
Experiment: Anticancer human tumor 743489-274-T-PDC patient-derived renal cell carcinoma cell line growth inhibition
Details: for viability, T/C: stronger effect = lower value
Procedure, shortened: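 Drug combinations with the LSD1 inhibitor iadademstat tested on tumor cells co-cultured as spheroids with endothelial cells and mesenchymal stem cells. Concentrations descended in half-log increments from clinical Cmax or 10 microM.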
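Also: spheroids exposed to compounds for 7 days before readout.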
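For viability, T/C in this document: 100% = DMSO vehicle control wells.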

In the case of CCN(c1cc(-c2ccc(CN3CCOCC3)cc2)cc(C(=O)NCc2c(C)cc(C)[nH]c2=O)c1C)C1CCOCC1 + NC1CC1c1ccc(-c2cccc(O)c2)cc1, the IC50 (curve of first compound, second compound 0.1 µM) is reported as > 3000 nM, the IC50 (curve of first compound, second compound 0.316 µM) is reported as > 3000 nM and the IC50 (curve of first compound, second compound 1 µM) is reported as > 3000 nM. The IC50 (curve of first compound, second compound 3.16 µM) was > 3000 nM, the IC50 (curve of first compound, second compound 10 µM) was > 3000 nM and the viability, T/C (second compound 0.1 µM, first compound 0.00949 µM) was 104%. It also gave a viability, T/C (second compound 0.1 µM, first compound 0.03 µM) of 110%, a viability, T/C (second compound 0.1 µM, first compound 0.0949 µM) of 95.6% and a viability, T/C (second compound 0.1 µM, first compound 0.3 µM) of 94.2%. For the same compound, the viability, T/C (second compound 0.1 µM, first compound 0.949 µM) was 96.1%, the viability, T/C (second compound 0.1 µM, first compound 3 µM) was 102% and the viability, T/C (second compound 0.316 µM, first compound 0.00949 µM) was 111%. The viability, T/C (second compound 0.316 µM, first compound 0.03 µM) was 98.3%, the viability, T/C (second compound 0.316 µM, first compound 0.0949 µM) was 102% and the viability, T/C (second compound 0.316 µM, first compound 0.3 µM) was 96.3%. For the same compound, the viability, T/C (second compound 0.316 µM, first compound 0.949 µM) was 97.2%, the viability, T/C (second compound 0.316 µM, first compound 3 µM) was 111% and the viability, T/C (second compound 1 µM, first compound 0.00949 µM) was 104%. For the same compound, the viability, T/C (second compound 1 µM, first compound 0.03 µM) was 107%, the viability, T/C (second compound 1 µM, first compound 0.0949 µM) was 103% and the viability, T/C (second compound 1 µM, first compound 0.3 µM) was 102%. The viability, T/C (second compound 1 µM, first compound 0.949 µM) was 97.2%, the viability, T/C (second compound 1 µM, first compound 3 µM) was 104% and the viability, T/C (second compound 3.16 µM, first compound 0.00949 µM) was 96.6%. It also gave a viability, T/C (second compound 3.16 µM, first compound 0.03 µM) of 104%, a viability, T/C (second compound 3.16 µM, first compound 0.0949 µM) of 92.8% and a viability, T/C (second compound 3.16 µM, first compound 0.3 µM) of 99.7%. For the same compound, the viability, T/C (second compound 3.16 µM, first compound 0.949 µM) was 108%, the viability, T/C (second compound 3.16 µM, first compound 3 µM) was 102% and the viability, T/C (second compound 10 µM, first compound 0.00949 µM) was 101%. It also gave a viability, T/C (second compound 10 µM, first compound 0.03 µM) of 100%, a viability, T/C (second compound 10 µM, first compound 0.0949 µM) of 106% and a viability, T/C (second compound 10 µM, first compound 0.3 µM) of 101%. The viability, T/C (second compound 10 µM, first compound 0.949 µM) was 106% and the viability, T/C (second compound 10 µM, first compound 3 µM) was 104%.

With O=C(C=Cc1cccc(S(=O)(=O)Nc2ccccc2)c1)NO the viability, T/C (compound 0.00949 µM) was 89.9% and 92.2%, the viability, T/C (compound 0.03 µM) was 83.1% and 89.3% and the viability, T/C (compound 0.0949 µM) was 76.4% and 75%. The viability, T/C (compound 0.3 µM) was 66.4% and 65%, the viability, T/C (compound 0.949 µM) was 55.4% and 51.6% and the viability, T/C (compound 3 µM) was 43.6% and 35.7%. The IC50 (curve of compound) was 1610 nM and 1010 nM.

With Nc1ccccc1NC(=O)c1ccc(CNC(=O)OCc2cccnc2)cc1 the viability, T/C (compound 0.00949 µM) was 85.4% and 102%, the viability, T/C (compound 0.03 µM) was 89.2% and 78% and the viability, T/C (compound 0.0949 µM) was 95.2% and 79.4%. The viability, T/C (compound 0.3 µM) was 78.8% and 67.1%, the viability, T/C (compound 0.949 µM) was 54.2% and 47.6% and the viability, T/C (compound 3 µM) was 32.6% and 26.4%. The IC50 (curve of compound) was 1160 nM and 758 nM.
